Structures can show the parent of a compound that is named as a salt.

The subject of one experiment is Acinetobacter baumannii ATCC17961. In words: Antimicrobial susceptibility testing: 90% growth inhibitory concentration (IC90) determination. The experiment is classed as cell-based. The following applies: Acinetobacter baumannii ATCC17961; Iso-Sensitest broth; growth by OD 600 nm over 16 h; 90% growth inhibitory concentration; read-out: ATCC 17961 IC90. As to the method: Antimicrobial Susceptibility Testing:
90% Growth Inhibitory Concentration (IC90) Determination
The in vitro antimicrobial activity of the compounds was determined according to the following procedure:
The assay used a 10-points Iso-Sensitest broth medium to measure quantitatively the in vitro activity of the compounds against Acinetobacter baumannii ATCC17961.
Stock compounds in DMSO were serially twofold diluted (e.g. range from 50 to 0.097 μM final concentration) in 384 wells microtiter plates and inoculated with 49 μl the bacterial suspension in Iso-Sensitest medium to have a final cell concentration of ˜5×10^(5) CFU/ml in a final volume/well of 50 ul/well. Microtiter plates were incubated at 35±2° C.
Bacterial cell growth was determined with the measurement of optical density at λ=600 nm each minutes over a time course of 16 h. Growth inhibition was calculated during the logarithmic growth of the bacterial cells with determination of the concentration inhibiting 50% (IC50) and 90% (IC90) of the growth.
Table 1 provides the 90% growth inhibitory concentrations (IC90) in micromoles per liter of the compounds of present invention obtained against the strain Acinetobacter baumannii ATCC17961.
As usually defined, the IC90 is the concentration at which the effect reaches the 90% level. With `Cn1c(-c2cn(-c3ccc(CO)cn3)nc2C(F)(F)F)cnc1C(=O)Nc1ccc(C(=O)N2CCN(C(=O)C3CC[N+](C)(C)CC3)CC2)c(Cl)c1` [Example F1, N-[3-Chloro-4-[4-(1,1-dimethylpiperidin-1-ium-4-carbonyl)piperazine-1-carbonyl]phenyl]-5-[1-[5-(hydroxymethyl)-2-pyridyl]-3-(trifluoromethyl)pyrazol-4-yl]-1-methyl-imidazole-2-carboxamide; formate], the 90% effect concentration (IC90) came out at 390 nM.

Turning to `COCc1c[nH]nc1-n1cc(-c2cnc(C(=O)Nc3ccc(C(=O)N4CCN(C(=O)C5CC[N+](C)(C)CC5)CC4)c(Cl)c3)n2C)c(C(F)(F)F)n1` [Example K3, N-[3-chloro-4-[4-(1,1-dimethylpiperidin-1-ium-4-carbonyl)piperazine-1-carbonyl]phenyl]-5-[1-[4-(methoxymethyl)-1H-pyrazol-3-yl]-3-(trifluoromethyl)pyrazol-4-yl]-1-methyl-imidazole-2-carboxamide], the IC90 was found to be 1300 nM. Still for that read-out and setting: in the case of `CNc1ccc(-n2cc(-c3cnc(C(=O)Nc4ccc(C(=O)N5CCN(C(=O)C6CC[N+](C)(C)CC6)CC5)c(C)c4)n3C)c(C(F)(F)F)n2)nc1` [Example E7, N-[4-[4-(1,1-dimethylpiperidin-1-ium-4-carbonyl)piperazine-1-carbonyl]-3-methyl-phenyl]-1-methyl-5-[1-[5-(methylamino)-2-pyridyl]-3-(trifluoromethyl)pyrazol-4-yl]imidazole-2-carboxamide; formate] it was 330 nM.

On to `COc1ccc(-n2cc(-c3cnc(C(=O)Nc4ccc(C(=O)N5CCN(C(=O)[C@@H]6C[C@@H](O)C[N+]6(C)C)CC5)c(Cl)c4)n3C)c(C(F)(F)F)n2)nc1` [Example B6, N-[3-chloro-4-[4-[(2S,4R)-4-hydroxy-1,1-dimethyl-pyrrolidin-1-ium-2-carbonyl]piperazine-1-carbonyl]phenyl]-5-[1-(5-methoxy-2-pyridyl)-3-(trifluoromethyl)pyrazol-4-yl]-1-methyl-imidazole-2-carboxamide; formate], for which the IC90 is 360 nM. The same measure, in the same setting: under `COCCOc1ccc(-n2cc(-c3cnc(C(=O)Nc4ccc(C(=O)N5CCN(C(=O)C6CC[N+](C)(C)CC6)CC5)c(Cl)c4)n3C)c(C(F)(F)F)n2)nc1` [Example G1, N-[3-Chloro-4-[4-(1,1-dimethylpiperidin-1-ium-4-carbonyl)piperazine-1-carbonyl]phenyl]-5-[1-[5-(2-methoxyethoxy)-2-pyridyl]-3-(trifluoromethyl)pyrazol-4-yl]-1-methyl-imidazole-2-carboxamide; formate] stands 350 nM. In the case of `Cn1c(-c2cn(-c3ccc(N)cn3)nc2C(F)(F)F)cnc1C(=O)Nc1ccc(C(=O)N2CCN(C(=O)[C@@H]3CC(O)CC[N+]3(C)C)CC2)c(Cl)c1` (stereo partly drawn) [Example D15, 5-[1-(5-Amino-2-pyridyl)-3-(trifluoromethyl)pyrazol-4-yl]-N-[3-chloro-4-[4-[(2S)-4-hydroxy-1,1-dimethyl-piperidin-1-ium-2-carbonyl]piperazine-1-carbonyl]phenyl]-1-methyl-imidazole-2-carboxamide;formate], the concentration for an effect of 90% (IC90) came out at 550 nM. The same measure, in the same setting: under `Cc1cc(-n2cc(-c3cnc(C(=O)Nc4ccc(C(=O)N5CCN(C(=O)C6CC[N+](C)(C)CC6)CC5)c(Cl)c4)n3C)c(C(F)(F)F)n2)ncc1N` [Example A9, 5-[1-(5-amino-4-methyl-2-pyridyl)-3-(trifluoromethyl)pyrazol-4-yl]-N-[3-chloro-4-[4-(1,1-dimethylpiperidin-1-ium-4-carbonyl)piperazine-1-carbonyl]phenyl]-1-methyl-imidazole-2-carboxamide] stands 290 nM.

As to `Cn1c(-c2cn(-c3ncccn3)nc2C(F)(F)F)cnc1C(=O)Nc1ccc(C(=O)N2CCN(C(=O)[C@@H]3C[C@@H](O)C[N+]3(C)C)CC2)c(Cl)c1` [Example B2, N-[3-chloro-4-[4-[(2S,4R)-4-hydroxy-1,1-dimethyl-pyrrolidin-1-ium-2-carbonyl]piperazine-1-carbonyl]phenyl]-1-methyl-5-[1-pyrimidin-2-yl-3-(trifluoromethyl)pyrazol-4-yl]imidazole-2-carboxamide; formate], the IC90 is 1600 nM.

Regarding `CCNc1ccc(-n2cc(-c3cnc(C(=O)Nc4ccc(C(=O)N5CCN(C(=O)C6CC[N+](C)(C)CC6)CC5)c(Cl)c4)n3C)c(C(F)(F)F)n2)nc1` [Example E3, N-[3-chloro-4-[4-(1,1-dimethylpiperidin-1-ium-4-carbonyl)piperazine-1-carbonyl]phenyl]-5-[1-[5-(ethylamino)-2-pyridyl]-3-(trifluoromethyl)pyrazol-4-yl]-1-methyl-imidazole-2-carboxamide; formate], the IC90 was 390 nM. On the same count and under the same terms, under `CNC(=O)c1ccc(-n2cc(-c3cnc(C(=O)Nc4ccc(C(=O)N5CCN(C(=O)C6CC[N+](C)(C)CC6)CC5)c(Cl)c4)n3C)c(C(F)(F)F)n2)nc1` [Example A3, 6-[4-[2-[[3-chloro-4-[4-(1,1-dimethylpiperidin-1-ium-4-carbonyl)piperazine-1-carbonyl]phenyl]carbamoyl]-3-methyl-imidazol-4-yl]-3-(trifluoromethyl)pyrazol-1-yl]-N-methyl-pyridine-3-carboxamide; formate] stands 820 nM; under `Cn1c(-c2cn(-c3ccc(N)cn3)nc2C(F)(F)F)cnc1C(=O)Nc1ccc(C(=O)N2CCN(C(=O)[C@@H]3CC[N+](C)(C)C[C@@H]3O)CC2)c(Cl)c1` (stereo in doubt) [Example D5, 5-[1-(5-amino-2-pyridyl)-3-(trifluoromethyl)pyrazol-4-yl]-N-[3-chloro-4-[4-[(3R,4R)-3-hydroxy-1,1-dimethyl-piperidin-1-ium-4-carbonyl]piperazine-1-carbonyl]phenyl]-1-methyl-imidazole-2-carboxamide; formate], 240 nM; under `Cn1c(-c2cn(-c3ccc(N)cn3)nc2C(F)(F)F)cnc1C(=O)Nc1ccc(C(=O)N2CCN(C(=O)[C@@H]3COCC[N+]3(C)C)CC2)c(Cl)c1` [Example D13, 5-[1-(5-amino-2-pyridyl)-3-(trifluoromethyl)pyrazol-4-yl]-N-[3-chloro-4-[4-[(3S)-4,4-dimethylmorpholin-4-ium-3-carbonyl]piperazine-1-carbonyl]phenyl]-1-methyl-imidazole-2-carboxamide; formate], 420 nM.

`Cn1c(-c2cn(-c3ncccn3)nc2C(F)(F)F)cnc1C(=O)Nc1ccc(C(=O)N2CC[N+](C)(C)CC2)c(Cl)c1` [Example B9, 4-(2-chloro-4-(1-methyl-5-(1-(pyrimidin-2-yl)-3-(trifluoromethyl)-1H-pyrazol-4-yl)-1H-imidazole-2-carboxamido)benzoyl)-1,1-dimethylpiperazin-1-ium]: the IC90 stood at 5200 nM. On the same count and under the same terms, under `COc1ccc(-n2cc(-c3cnc(C(=O)Nc4ccc(C(=O)N5CCN(C(=O)[C@@H]6CC[N+](C)(C)C[C@H]6O)CC5)c(Cl)c4)n3C)c(C(F)(F)F)n2)nc1` [Example B5, N-[3-chloro-4-[4-[(3S,4R)-3-hydroxy-1,1-dimethyl-piperidin-1-ium-4-carbonyl]piperazine-1-carbonyl]phenyl]-5-[1-(5-methoxy-2-pyridyl)-3-(trifluoromethyl)pyrazol-4-yl]-1-methyl-imidazole-2-carboxamide] stands 310 nM. The same measure, in the same setting: under `CNc1ccc(-n2cc(-c3cnc(C(=O)Nc4ccc(C(=O)N5CCN(C(=O)[C@@H]6CC[N+](C)(C)C[C@H]6O)CC5)c(Cl)c4)n3C)c(C(F)(F)F)n2)nc1` [Example E8, N-[3-chloro-4-[4-[(3S,4R)-3-hydroxy-1,1-dimethyl-piperidin-1-ium-4-carbonyl]piperazine-1-carbonyl]phenyl]-1-methyl-5-[1-[5-(methylamino)-2-pyridyl]-3-(trifluoromethyl)pyrazol-4-yl]imidazole-2-carboxamide; formate] stands 220 nM; under `Cn1c(-c2cn(-c3ncc(N)cc3F)nc2C(F)(F)F)cnc1C(=O)Nc1ccc(C(=O)N2CCN(C(=O)C3CC[N+](C)(C)CC3)CC2)c(Cl)c1` [Example A8, 5-[1-(5-amino-3-fluoro-2-pyridyl)-3-(trifluoromethyl)pyrazol-4-yl]-N-[3-chloro-4-[4-(1,1-dimethylpiperidin-1-ium-4-carbonyl)piperazine-1-carbonyl]phenyl]-1-methyl-imidazole-2-carboxamide], 330 nM; under `Cn1c(-c2cn(-c3ccc(N)cn3)nc2C(F)(F)F)cnc1C(=O)Nc1ccc(C(=O)N2CCN(C(=O)[C@H]3CC[N+](C)(C)C[C@H]3O)CC2)c(Cl)c1` (stereo in doubt) [Example D7, 5-[1-(5-amino-2-pyridyl)-3-(trifluoromethyl)pyrazol-4-yl]-N-[3-chloro-4-[4-[(3S,4S)-3-hydroxy-1,1-dimethyl-piperidin-1-ium-4-carbonyl]piperazine-1-carbonyl]phenyl]-1-methyl-imidazole-2-carboxamide; formate], 400 nM.

Staying with this experiment, now noted: Acinetobacter baumannii, ATCC17961, 16 h, read-out: ATCC 17961 IC90.
`CNc1ccc(-n2cc(-c3cnc(C(=O)Nc4ccc(C(=O)N5CCN(C(=O)C6CC[N+](C)(C)CC6)CC5)c(Cl)c4)n3C)c(C(F)(F)F)n2)nc1` [Example E1, N-[3-Chloro-4-[4-(1,1-dimethylpiperidin-1-ium-4-carbonyl)piperazine-1-carbonyl]phenyl]-1-methyl-5-[1-[5-(methylamino)-2-pyridyl]-3-(trifluoromethyl)pyrazol-4-yl]imidazole-2-carboxamide; formate]: the IC90 came out at 100 nM.

These data come from US12655126B2, “Imidazole-pyrazole derivatives as antibacterials” (Hoffmann-La Roche Inc., priority 2020, dated 2026).
